Experimental data as given in patent US4673674A, “Diazepinoindoles useful for treating depression, schizophrenia, social withdrawal or anxiety and pharmaceutical compositions containing them” (Sandoz Pharmaceuticals Corp., priority 1984, dated 1987).
Read-outs that look alike come from different tables or passages of the source.

Legend:
[1] = molecular target: T1, 5-HT2 receptors in the rat frontal cortex (Rattus norvegicus, UniProt P14842); test: inhibition of specific 3H-spiperone binding to 5-HT2 receptors in rat frontal cortex; details: rat frontal cortex membranes, 1 nM 3H-spiperone, 1 h at 37° C., pH 7.7
T1 construct: Fresh frontal cortex tissue from rat brain is homogenized; from tissue; host or cells: rat frontal cortex membranes
Description: This test has been carried out as follows:
Fresh frontal cortex tissue from rat brain is homogenized in a 20 fold volume of Tris-HCl buffer (50 mM, pH 7.7, containing 4 mM CaCl2, 10 μM pargyline, and 0.1% ascorbic acid), and centrifuged. The pellets are resuspended in a 25 fold volume of the same buffer, incubated for 15 min at 37° C., and recentrifuged. The pellets are frozen at -20° C. and resuspended in a 360 fold volume of the same buffer as above before use for the binding experiment. The composition of the assay mixtures (total volume =2 ml) is as follows: 50 mM Tris-HCl pH 7,7, 4 mM CaCl2, 10 μM pargyline, 0.1% ascorbic acid, membranes corresponding to 5 mg of original tissue weight, and 1 nM ^3 H-spiperone. The assays for the determination of nonspecific binding additionally contain cinanserin in a concentration of 1 μM. […] After incubation for 1 hour at 37° C., the assay mixtures are rapidly filtered through Whatman GF/B filters and washed twice with 5 ml of ice cold incubation buffer.

locomotion in mice = test: inhibition of locomotion in mice (neuroleptic activity); format: in vivo, mice (male, OF-1); details: Mus musculus, po, read-out: EDmin (inhibition of locomotion)
Description: In this test groups of 3 male mice (18-24 g, OF-1, Sandoz Basle) received 3.2, 10, 32, 100 and 320 mg p.o. of the test drug.

[2] = molecular target: T2, 3H-spiperone binding sites in the brain (calf brain striatal tissue) (Bos taurus, UniProt P20288); test: inhibition of specific 3H-spiperone binding in calf brain striatal tissue; details: calf brain striatal membranes, 0.1 nM 3H-spiperone, 5×10^-7 M cinanserin, 40 minutes at room temperature
T2 construct: fresh calf brain striatal tissue was homogenized; from tissue; host or cells: calf brain striatal membranes

paradoxical sleep (PS) = test: reduction of paradoxical sleep (PS) in the 48 h sleep EEG in rats; format: in vivo; details: 3.2-32 mg/kg p.o.
Excerpt: Kleinlogel "EEG in Drug Research" ed. by Hermann, Gustav Fischer Verlag, Stuttgart, N.Y., 75-88 (1982)].

T1 sequence (P14842 whole entry): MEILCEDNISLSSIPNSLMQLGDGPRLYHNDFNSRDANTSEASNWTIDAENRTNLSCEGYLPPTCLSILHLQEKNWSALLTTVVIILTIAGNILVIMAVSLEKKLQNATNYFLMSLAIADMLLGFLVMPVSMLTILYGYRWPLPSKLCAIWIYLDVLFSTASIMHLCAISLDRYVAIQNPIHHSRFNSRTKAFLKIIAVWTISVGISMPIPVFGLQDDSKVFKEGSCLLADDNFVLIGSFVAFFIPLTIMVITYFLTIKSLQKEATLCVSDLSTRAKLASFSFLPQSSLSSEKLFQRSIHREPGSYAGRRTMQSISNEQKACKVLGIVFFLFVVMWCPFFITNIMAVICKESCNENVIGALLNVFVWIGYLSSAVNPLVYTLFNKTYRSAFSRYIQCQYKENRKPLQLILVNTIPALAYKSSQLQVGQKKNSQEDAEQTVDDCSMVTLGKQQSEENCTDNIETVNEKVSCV
T2 sequence (P20288 whole entry): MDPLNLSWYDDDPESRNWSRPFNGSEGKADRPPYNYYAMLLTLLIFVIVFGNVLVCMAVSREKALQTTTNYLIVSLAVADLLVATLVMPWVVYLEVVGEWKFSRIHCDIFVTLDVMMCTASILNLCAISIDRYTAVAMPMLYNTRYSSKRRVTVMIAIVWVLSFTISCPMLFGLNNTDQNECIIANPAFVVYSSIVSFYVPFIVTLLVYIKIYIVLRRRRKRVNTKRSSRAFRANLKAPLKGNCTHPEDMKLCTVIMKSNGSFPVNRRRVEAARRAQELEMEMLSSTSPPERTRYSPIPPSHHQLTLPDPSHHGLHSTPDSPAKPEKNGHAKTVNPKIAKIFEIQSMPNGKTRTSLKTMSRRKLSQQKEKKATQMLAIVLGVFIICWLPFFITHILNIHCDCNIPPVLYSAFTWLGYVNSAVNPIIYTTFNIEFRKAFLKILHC

| Compound | IC50 [1] [nM] | also measured |
| --- | --- | --- |
| C=CCN1CCc2c(-c3ccccc3)c3ccccc3n2CC1 [Example 3, 3-Allyl-2,3,4,5-tetrahydro-11-phenyl-1H-[1,4]diazepino-[1,7-a]indole] | 1 to 10 | – |
| CN1CCc2c(-c3ccc(Cl)cc3)c3ccccc3n2CC1 [Example 5j] | – | minimal effective dose (locomotion in mice; male mice, 1 hour after administration): 3.2 mg/kg; IC50 [2]: 137 nM |
| c1ccc(-c2c3n(c4ccccc24)CCNCC3)cc1 [Example 2, 2,3,4,5,-Tetrahydro-11-phenyl-1H-[1,4]diazepino[1,7-a]indole] | 1 to 10 | – |
| CN(C)CCC=C1c2ccccc2CCc2ccccc21 [amitriptyline, reference compound] | 15 | reduction of paradoxical sleep (PS) (paradoxical sleep (PS)): reduce further the paradoxical sleep (PS) without rebound |
| CN1CCc2c(-c3ccccc3)c3ccccc3n2CC1 [Example 1, 2,3,4,5-Tetrahydro-3-methyl-11-phenyl-1H-[1,4]diazepino[1,7-a]indole] | 1 to 10 | – |
| CSc1ccc2c(c1)N(CCC1CCCCN1C)c1ccccc1S2 (stereo not drawn) [thioridazine, reference compound] | – | minimal effective dose (locomotion in mice; 1 h): 10 to 32 mg/kg |
| c1ccc(-c2c3n(c4ccccc24)CCN(CC2CC2)CC3)cc1 [Example 4, 3-Cyclopropylmethyl-2,3,4,5-tetrahydro-11-phenyl-1H-[1,4]diazepino[1,7-a]indole] | 1 to 10 | – |
